Among the data in US8022091B2, “Triazole derivative” (Taisho Pharmaceutical Co., Ltd., priority 2006, dated 2011) are IC50 and inhibition values, retold here.

Broadly, the inhibition is the relative decrease from the control value, in per cent.

T1 sequence (P21453 whole entry): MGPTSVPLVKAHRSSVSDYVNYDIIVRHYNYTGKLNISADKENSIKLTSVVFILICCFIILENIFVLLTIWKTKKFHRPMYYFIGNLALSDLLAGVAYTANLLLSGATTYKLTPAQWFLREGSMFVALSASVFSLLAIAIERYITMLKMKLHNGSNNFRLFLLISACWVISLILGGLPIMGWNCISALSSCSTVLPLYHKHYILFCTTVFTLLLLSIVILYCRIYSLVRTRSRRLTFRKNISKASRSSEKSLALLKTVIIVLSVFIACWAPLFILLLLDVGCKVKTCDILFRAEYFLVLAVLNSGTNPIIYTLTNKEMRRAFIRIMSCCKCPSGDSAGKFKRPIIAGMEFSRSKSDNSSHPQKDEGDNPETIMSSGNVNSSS

One assay has as its target T1, human Edg-1 (S1P1) (Homo sapiens, UniProt P21453).
T1 construct: expressed in transfected cells; host or cells: HEK-293
Kind of assay: S1P1 binding assay: inhibition of [33P]-S1P binding to membrane fraction of HEK-293 cells transferred with the human Edg-1 (S1P1) gene. The conditions noted are these: [33P]-S1P 0.1 nM, human Edg-1 (S1P1) HEK-293 membrane fraction, 1 h at 30° C.; read-out: IC50 (concentration at which binding in the absence of the test compound was inhibited by 50%). On the procedure:
The membrane fraction was obtained by treating the cells with a solubilizing buffer (1 mM Tris/HCl, pH 7.2) for 10 minutes on ice, centrifuging at 1000×g for 5 minutes to remove insoluble fractions, and then centrifuging at 40000×g for 30 minutes at 4° C. The resulting membrane fraction was dissolved in a binding buffer (20 mM Tris-HCl, pH 7.4, 100 mM NaCl, 15 mM NaF, 2 mM deoxypyridoxine, 4 mg/mL fatty acid-free BSA), and then [^33P]-S1P (manufactured by ARC, final concentration 0.1 nM) and a DMSO solution (final concentration of the compound 10^−5M, final concentration of DMSO 0.1%) of the test compound were added. Thereafter, the mixture was stirred and then treated for one hour at 30° C. Using a harvester, the membrane fraction was harvested onto unifilter-96 GF/C filter (manufactured by Perkin Elmer), washing was carried out four times with the binding buffer, and the filter was dried. Twenty five μL Microscint 0 (manufactured by Perkin Elmer) was added, and radioactivity was measured using Top Count NXT (manufactured by Packard) to calculate the amount (A) of [^33P]-S1P bound to the membrane fraction at the time when the compound was added.
The same procedure was carried out in the absence of the test compound, and the amount (B) of [^33P]-S1P bound was calculated. Further, the same procedure was carried out in the absence of the test compound by use of HEK-293 cells to which no Edg-1 (S1P1) gene was introduced, and the background amount (C) of [^33P]-S1P bound was calculated.
Inhibition rate (%)=[1−(A−C)/(B−C)]×100
Further, concentrations (IC50) at the time when binding in the absence of the test compound was inhibited by 50% were calculated. The membrane system binding assay was carried out in the presence of test compounds with various concentrations, and the Edg-1 (S1P1) binding inhibition rates were calculated using the equation above. Then, IC50 values were calculated using Origin (Lightstone Corp.), a software for data analysis.
On to `CCn1c(Oc2cccc(N3CCN(C)CC3)c2)nnc1[C@@H](C)NS(=O)(=O)c1ccc(Cl)c(Cl)c1` [Compound 45, 3,4-Dichloro-N-((R)-1-[4-ethyl-5-[3-(4-methyl-piperazin-1-yl)-phenoxy]-4H-[1,2,4]triazol-3-yl]-ethyl)-benzenesulfonamide], for which the IC50 is 4.2 nM.
With `CCn1c(Oc2cccc(N(CCOC)CCOC)c2)nnc1[C@@H](C)NS(=O)(=O)c1ccc(Cl)c(Cl)c1` [Compound 100], the IC50 amounted to 18.5 nM.

The assay is the same for the next values; noted with them: test compound 10 μM; inhibition of [33P]-S1P binding, membrane fraction.
On to `CCn1c(Oc2cccc(N3CCN(C)CC3)c2)nnc1[C@@H](C)NS(=O)(=O)c1cc(Cl)ccc1F` [Compound 614], for which the inhibition at 10 µM stood at 77.8%.
Regarding `CCn1c(Oc2cccc(N3CCN(C)CC3)c2)nnc1[C@@H](C)NS(=O)(=O)c1ccccc1` [Compound 498], the inhibition at 10 µM is 84%.
As to `CCCc1ccc(S(=O)(=O)N[C@H](C)c2nnc(Oc3cccc(N4CCN(C)CC4)c3)n2CC)cc1` [Compound 548], the inhibition at 10 µM was 96.7%.
In the case of `CCn1c(Oc2cccc(N3CCN(C)CC3)c2)nnc1[C@@H](C)NS(=O)(=O)c1c(C(C)C)cc(C(C)C)cc1C(C)C` [Compound 527], the inhibition at 10 µM was determined as 52.1%.
On to `CCn1c(Oc2ccc3cc[nH]c3c2)nnc1[C@@H](C)NS(=O)(=O)c1cc(C(F)(F)F)ccc1Br` [Compound 443], for which the inhibition at 10 µM came out at 55.7%.
Regarding `CCc1ccc(OC)c(S(=O)(=O)N[C@H](C)c2nnc(Oc3cccc(N4CCN(C)CC4)c3)n2CC)c1` [Compound 652], the inhibition at 10 µM came to 91.9%.
`CCn1c(Oc2ccc3cc[nH]c3c2)nnc1[C@@H](C)NS(=O)(=O)c1c(C)cc(Cl)cc1Cl` [Compound 426]: the inhibition at 10 µM came out at 92.3%.
On the same count and under the same terms, then `CCn1c(Oc2ccc3cc[nH]c3c2)nnc1[C@@H](C)NS(=O)(=O)c1ccc(Br)cc1F` [Compound 414], with 92.5%; and `CCn1c(Oc2cccc(N3CCN(C)CC3)c2)nnc1[C@@H](C)NS(=O)(=O)c1ccc(S(C)(=O)=O)cc1` [Compound 520], with 69.9%.
`CCn1c(Oc2ccc3cc[nH]c3c2)nnc1[C@@H](C)NS(=O)(=O)c1ccc(Br)c(C)c1` [Compound 440]: the inhibition at 10 µM was determined as 88.4%.
Take `CCn1c(Oc2ccc3cc[nH]c3c2)nnc1[C@@H](C)NS(=O)(=O)c1cc(F)cc(F)c1` [Compound 437]: the inhibition at 10 µM is 97.3%.
Consider `CCn1c(Oc2cccc(N3CCN(C)CC3)c2)nnc1[C@@H](C)NS(=O)(=O)c1cccc(Cl)c1Cl` [Compound 550], for which the inhibition at 10 µM was 104%.
In the case of `CCn1c(Oc2ccc3cc[nH]c3c2)nnc1[C@@H](C)NS(=O)(=O)c1cccc(Cl)c1` [Compound 403], the inhibition at 10 µM stood at 72.5%.
Same read-out and setting: the figure for `CCn1c(Oc2cccc(N3CCN(C)CC3)c2)nnc1[C@@H](C)NS(=O)(=O)c1ccc(-c2cnco2)s1` [Compound 636] is 85.7%.
Same read-out and setting: the figure for `CCn1c(Oc2ccc3cc[nH]c3c2)nnc1[C@@H](C)NS(=O)(=O)c1cc(F)c(F)cc1F` [Compound 427] is 86.5%; for `CCn1c(Oc2cccc(N3CCN(C)CC3)c2)nnc1[C@@H](C)NS(=O)(=O)c1cc(OC)ccc1OC` [Compound 569] it is 75%; for `CCn1c(Oc2cccc(N3CCN(C)CC3)c2)nnc1[C@@H](C)NS(=O)(=O)c1cc(C(F)(F)F)cc(C(F)(F)F)c1` [Compound 553] it is 107%.
As for `CCn1c(Oc2cccc(N3CCN(C)CC3)c2)nnc1[C@@H](C)NS(=O)(=O)c1cccc(C(C)=O)c1` [Compound 647], the inhibition at 10 µM is 99%.
In the case of `CCn1c(Oc2cccc(N3CCN(C)CC3)c2)nnc1[C@@H](C)NS(=O)(=O)c1cccc(F)c1` [Compound 592], the inhibition at 10 µM stood at 95.8%.
Consider `CCn1c(Oc2ccc3cc[nH]c3c2)nnc1[C@@H](C)NS(=O)(=O)c1ccc(F)cc1C` [Compound 445], for which the inhibition at 10 µM worked out at 55.6%.
In the case of `CCn1c(Oc2cccc(N3CCN(C)CC3)c2)nnc1[C@@H](C)NS(=O)(=O)c1cc(F)c(F)cc1F` [Compound 596], the inhibition at 10 µM is 100%.
Turning to `CCn1c(Oc2ccc3cc[nH]c3c2)nnc1[C@@H](C)NS(=O)(=O)c1cc(C)sc1C` [Compound 472], the inhibition at 10 µM amounted to 55.3%.
Turning to `CCn1c(Oc2ccc3cc[nH]c3c2)nnc1[C@@H](C)NS(=O)(=O)c1ccc(OC(F)F)cc1` [Compound 434], the inhibition at 10 µM amounted to 79.5%.
The same measure, in the same setting: the figure for `CCn1c(Oc2ccc3cc[nH]c3c2)nnc1[C@@H](C)NS(=O)(=O)c1ccc(-c2ccno2)s1` [Compound 429] is 71.1%.
For the compound `CCOc1ccc(NC(C)=O)cc1S(=O)(=O)N[C@H](C)c1nnc(Oc2cccc(N3CCN(C)CC3)c2)n1CC` [Compound 649], the inhibition at 10 µM is 64.7%.
For `CCn1c(Oc2ccc3cc[nH]c3c2)nnc1[C@@H](C)NS(=O)(=O)c1ccc(-c2cnco2)s1` [Compound 467], the inhibition at 10 µM was determined as 59.9%.
Take `CCn1c(Oc2ccc3cc[nH]c3c2)nnc1[C@@H](C)NS(=O)(=O)c1ccc(OC)cc1OC` [Compound 473]: the inhibition at 10 µM is 74.5%.
Turning to `CCc1cc(Br)ccc1S(=O)(=O)N[C@H](C)c1nnc(Oc2ccc3cc[nH]c3c2)n1CC` [Compound 406], the inhibition at 10 µM was 56.3%.

The same assay, now with this note: test compound at 10 μM; inhibition of [33P]-S1P binding to the membrane fraction of HEK-293 cells expressing human Edg-1 (S1P1).
With `CCn1c(Oc2ccc(F)cc2)nnc1[C@@H](C)NS(=O)(=O)c1cc(F)c(F)cc1Cl` [Compound 240], the inhibition at 10 µM was found to be 82.5%.
On the same count and under the same terms, the figure for `CCn1c(Oc2ccc3cc[nH]c3c2)nnc1[C@@H](C)NS(=O)(=O)c1ccc(C(C)(C)C)cc1` [Compound 330] is 81.6%; for `CCn1c(Oc2ccc(F)cc2)nnc1[C@@H](C)NS(=O)(=O)c1cc(C)ccc1C` [Compound 195] it is 90.1%; for `CCn1c(Oc2ccc3cc[nH]c3c2)nnc1[C@@H](C)NS(=O)(=O)c1ccc(C(=O)OC)n1C` [Compound 372] it is 106%.
Take `CCn1c(Oc2ccc3cc[nH]c3c2)nnc1[C@@H](C)NS(=O)(=O)c1cc(F)c(Br)cc1F` [Compound 387]: the inhibition at 10 µM is 63.5%.
In the case of `CCn1c(Oc2cccc(N3CCN(C)CC3)c2)nnc1[C@@H](C)NS(=O)(=O)c1ccc(Cl)c(Cl)c1` [Compound 45, 3,4-Dichloro-N-((R)-1-[4-ethyl-5-[3-(4-methyl-piperazin-1-yl)-phenoxy]-4H-[1,2,4]triazol-3-yl]-ethyl)-benzenesulfonamide], the inhibition at 10 µM is 106%.
Take `CCn1c(Oc2ccc(F)cc2)nnc1[C@@H](C)NS(=O)(=O)c1ccc(F)c(F)c1` [Compound 241]: the inhibition at 10 µM amounted to 95.8%.
Same read-out and setting: then `CCn1c(Oc2ccc3cc[nH]c3c2)nnc1[C@@H](C)NS(=O)(=O)c1ccc(OC(F)(F)F)cc1` [Compound 362], with 95.1%; and `CCn1c(Oc2ccc(F)cc2)nnc1[C@@H](C)NS(=O)(=O)c1cc(C)c(Cl)cc1C` [Compound 167], with 113%; and `CCn1c(Oc2cccc(N(CCOC)CCOC)c2)nnc1[C@@H](C)NS(=O)(=O)c1ccc(Cl)c(Cl)c1` [Compound 100], with 110%.
As for `CCn1c(Oc2ccc(F)cc2)nnc1[C@@H](C)NS(=O)(=O)c1cc(C(F)(F)F)cc(C(F)(F)F)c1` [Compound 212], the inhibition at 10 µM stood at 69.7%.
Take `CCn1c(Sc2ccc(C)cc2)nnc1[C@@H](C)NS(=O)(=O)c1ccc(Cl)c(Cl)c1` [Compound 55, 3,4-Dichloro-N-[(R)-1-(4-ethyl-5(4-methylbenzenesulfanyl)-4H-[1,2,4]triazol-3-yl)-ethyl]-benzenesulfonamide]: the inhibition at 10 µM stood at 80.6%.
Still for that read-out and setting: then `CCn1c(Oc2ccc3cc[nH]c3c2)nnc1[C@@H](C)NS(=O)(=O)c1ccc(Br)cc1` [Compound 329], with 101%; and `CCn1c(Oc2ccc(F)cc2)nnc1[C@@H](C)NS(=O)(=O)c1cccc(C(F)(F)F)c1` [Compound 188], with 107%.
In the case of `CCn1c(Oc2ccc3cc[nH]c3c2)nnc1[C@@H](C)NS(=O)(=O)c1ccccc1C#N` [Compound 336], the inhibition at 10 µM amounted to 56.8%.
For `CCn1c(Oc2ccc3cc[nH]c3c2)nnc1[C@@H](C)NS(=O)(=O)c1cccc(C)c1` [Compound 364], the inhibition at 10 µM amounted to 87.5%.
For the compound `CCn1c(Oc2ccc(F)cc2)nnc1[C@@H](C)NS(=O)(=O)c1ccc(F)cc1Br` [Compound 269], the inhibition at 10 µM is 91.5%.
Take `CCn1c(Oc2ccc(F)cc2)nnc1[C@@H](C)N(C)S(=O)(=O)c1ccc(Cl)c(Cl)c1` [Compound 115, 3,4-Dichloro-N-[(R)-1-[4-ethyl-5-(4-fluorophenoxy)-4H-[1,2,4]triazol-3-yl]-ethyl]-N-methyl-benzenesulfonamide]: the inhibition at 10 µM was found to be 81.8%.
On the same count and under the same terms, then `CCn1c(Oc2ccc3cc[nH]c3c2)nnc1[C@@H](C)NS(=O)(=O)c1c(C)c(C)cc(C)c1C` [Compound 378], with 71.6%; and `CCn1c(Oc2ccc(F)cc2)nnc1[C@@H](C)NS(=O)(=O)c1ccc(F)c(F)c1F` [Compound 237], with 64.8%; and `CCn1c(Oc2ccc(F)cc2)nnc1[C@@H](C)NS(=O)(=O)c1ccc(Br)cc1Cl` [Compound 276], with 94.4%.
